Values of other authors, collected in paper PMC9863691, “A Novel Ferroptosis Inhibitor UAMC-3203, a Potential Treatment for Corneal Epithelial Wound” (Pharmaceutics, 2022).

Columns and labels:
ferroptosis = system: ferroptosis; design: method as in PMID 30354101; settings: read-out: in vitro potency IC50 (ferroptosis); cited from earlier work
[1] = system: human corneal epithelial cell line; design: method as in PMID 34535730; settings: after exposure to cigarette smoke and heated tobacco products; cited from earlier work
[2] = human, microsomes; cited from earlier work

## CCOC(=O)c1ccc(NC2CCCCC2)c(N)c1 [Fer-1, Ferrostatin-1, reference compound]
ferroptosis
  IC50: 0.033 µM
[1]
  effect on cell death and cell viability: reduced cell death and improved cell viability
[2]
  t1/2 in human microsome: 6 min
